Results on 14 compounds are retold here after ChEMBL document CHEMBL2046431 (Bioorg Med Chem, 2012).

Where only a bound is given, the exact number is not on record here.

The nature of the series: Permeability across human Caco2 cells. The format is ADME, cell-based. The settings on record: Caco-2, read-out: permeability.

`CC(C)c1cccc(CNC[C@@H](O)[C@@H]2COCCCCCCNC(=O)c3cc(cc(N(C)S(C)(=O)=O)c3)C(=O)N2)c1`: the Papp was no more than 10 nm/s.

For the compound `Cc1cc2cc(c1)C(=O)N[C@H]([C@H](O)CNCc1cccc(C(C)C)c1)COC/C=C/CCNC2=O`, the Papp is no more than 10 nm/s.

In the case of `CN(c1cc2cc(c1)C(=O)N[C@H]([C@H](O)CNCc1ccccc1)COC/C=C/CCNC2=O)S(C)(=O)=O`, the Papp was no more than 10 nm/s.

Take `CC(C)c1cccc(CNC[C@@H](O)[C@@H]2COC/C=C/CCCNC(=O)c3cc(cc(N(C)S(C)(=O)=O)c3)C(=O)N2)c1`: the Papp was no more than 10 nm/s.

Consider `CC(C)c1cccc(CNC[C@@H](O)[C@@H]2COC/C=C/C[C@H](c3ccccc3)NC(=O)c3cc(cc(N(C)S(C)(=O)=O)c3)C(=O)N2)c1`, for which the Papp was no more than 10 nm/s.

Turning to `CC(C)c1cccc(CNC[C@@H](O)[C@@H]2COCCCCCNC(=O)c3cc(cc(N(C)S(C)(=O)=O)c3)C(=O)N2)c1`, the Papp is no more than 10 nm/s.

As to `CN(c1cc2cc(c1)C(=O)N[C@H]([C@H](O)CNCc1cccc(C(C)(C)C)c1)COC/C=C/CCNC2=O)S(C)(=O)=O`, the Papp is no more than 10 nm/s.

Turning to `Cc1cc2cc(c1)C(=O)N[C@@H](c1ccccc1)C/C=C/COC[C@@H]([C@H](O)CNCc1cccc(C(C)C)c1)NC2=O`, the Papp was no more than 10 nm/s.

Regarding `CC(C)c1cccc(CNC[C@@H](O)[C@@H]2COC/C=C/CCNC(=O)c3cc(cc(N(C)S(C)(=O)=O)c3)C(=O)N2)c1`, the Papp was no more than 10 nm/s.

As to `Cc1cc2cc(c1)C(=O)N[C@H]([C@H](O)CNCc1cccc(C(C)C)c1)COC/C=C/C[C@@H](c1ccccc1)NC2=O`, the Papp is no more than 10 nm/s.

With `CC(C)c1cccc(CNC[C@@H](O)[C@@H]2COC/C=C\CCN(C)C(=O)c3cc(cc(N(C)S(C)(=O)=O)c3)C(=O)N2)c1`, the Papp was no more than 10 nm/s.

In the case of `CN(c1cc2cc(c1)C(=O)N[C@H]([C@H](O)CNCc1ccccc1)COCCCCCNC2=O)S(C)(=O)=O`, the Papp was no more than 10 nm/s.

In the case of `Cc1cc2cc(c1)C(=O)N[C@H]([C@H](O)CNCc1ccccc1)COC/C=C/CCNC2=O`, the Papp was no more than 10 nm/s.

On to `CC(C)c1cccc(CNC[C@@H](O)[C@@H]2COC/C=C/C[C@@H](c3ccccc3)NC(=O)c3cc(cc(N(C)S(C)(=O)=O)c3)C(=O)N2)c1`, for which the Papp is no more than 10 nm/s.
